In ChEMBL document CHEMBL1201862, “PubChem BioAssay data set” (2004):
Active and inactive are the calls of the source.

Columns and labels:
[1] = target: T1, Replicative DNA helicase DnaB (Mycobacterium tuberculosis, UniProt P9WMR3); experiment: DnaB intein splicing inhibitors, dose response, biochemical, cell-free fluorescence (AID 449749); type: functional
T1 sequence (P9WMR3 whole entry): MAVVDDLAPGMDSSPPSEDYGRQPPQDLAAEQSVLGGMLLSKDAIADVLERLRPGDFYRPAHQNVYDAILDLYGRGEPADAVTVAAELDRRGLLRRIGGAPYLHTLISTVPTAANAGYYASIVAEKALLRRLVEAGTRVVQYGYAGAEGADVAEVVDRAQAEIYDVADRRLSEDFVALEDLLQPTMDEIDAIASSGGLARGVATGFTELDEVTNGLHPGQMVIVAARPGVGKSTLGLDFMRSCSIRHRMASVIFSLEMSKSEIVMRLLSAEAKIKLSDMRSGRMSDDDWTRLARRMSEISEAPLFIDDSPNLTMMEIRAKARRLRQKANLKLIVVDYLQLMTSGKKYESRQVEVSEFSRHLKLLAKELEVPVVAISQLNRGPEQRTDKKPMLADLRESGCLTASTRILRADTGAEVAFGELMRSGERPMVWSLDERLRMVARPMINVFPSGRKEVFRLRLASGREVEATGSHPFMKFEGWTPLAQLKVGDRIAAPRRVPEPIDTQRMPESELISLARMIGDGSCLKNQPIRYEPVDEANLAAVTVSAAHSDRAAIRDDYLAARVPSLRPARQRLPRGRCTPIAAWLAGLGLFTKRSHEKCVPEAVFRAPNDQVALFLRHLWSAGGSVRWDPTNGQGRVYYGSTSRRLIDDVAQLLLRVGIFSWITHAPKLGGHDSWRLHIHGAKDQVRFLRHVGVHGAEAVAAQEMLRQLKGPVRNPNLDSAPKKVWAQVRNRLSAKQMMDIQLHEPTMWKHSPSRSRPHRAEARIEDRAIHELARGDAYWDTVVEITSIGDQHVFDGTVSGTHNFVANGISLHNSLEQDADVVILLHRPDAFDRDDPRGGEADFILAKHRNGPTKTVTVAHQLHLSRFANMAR

[2] = target: T2, Histone-lysine N-methyltransferase NSD2 (Homo sapiens, UniProt O96028); type: biochemical
T2 sequence (O96028 whole entry): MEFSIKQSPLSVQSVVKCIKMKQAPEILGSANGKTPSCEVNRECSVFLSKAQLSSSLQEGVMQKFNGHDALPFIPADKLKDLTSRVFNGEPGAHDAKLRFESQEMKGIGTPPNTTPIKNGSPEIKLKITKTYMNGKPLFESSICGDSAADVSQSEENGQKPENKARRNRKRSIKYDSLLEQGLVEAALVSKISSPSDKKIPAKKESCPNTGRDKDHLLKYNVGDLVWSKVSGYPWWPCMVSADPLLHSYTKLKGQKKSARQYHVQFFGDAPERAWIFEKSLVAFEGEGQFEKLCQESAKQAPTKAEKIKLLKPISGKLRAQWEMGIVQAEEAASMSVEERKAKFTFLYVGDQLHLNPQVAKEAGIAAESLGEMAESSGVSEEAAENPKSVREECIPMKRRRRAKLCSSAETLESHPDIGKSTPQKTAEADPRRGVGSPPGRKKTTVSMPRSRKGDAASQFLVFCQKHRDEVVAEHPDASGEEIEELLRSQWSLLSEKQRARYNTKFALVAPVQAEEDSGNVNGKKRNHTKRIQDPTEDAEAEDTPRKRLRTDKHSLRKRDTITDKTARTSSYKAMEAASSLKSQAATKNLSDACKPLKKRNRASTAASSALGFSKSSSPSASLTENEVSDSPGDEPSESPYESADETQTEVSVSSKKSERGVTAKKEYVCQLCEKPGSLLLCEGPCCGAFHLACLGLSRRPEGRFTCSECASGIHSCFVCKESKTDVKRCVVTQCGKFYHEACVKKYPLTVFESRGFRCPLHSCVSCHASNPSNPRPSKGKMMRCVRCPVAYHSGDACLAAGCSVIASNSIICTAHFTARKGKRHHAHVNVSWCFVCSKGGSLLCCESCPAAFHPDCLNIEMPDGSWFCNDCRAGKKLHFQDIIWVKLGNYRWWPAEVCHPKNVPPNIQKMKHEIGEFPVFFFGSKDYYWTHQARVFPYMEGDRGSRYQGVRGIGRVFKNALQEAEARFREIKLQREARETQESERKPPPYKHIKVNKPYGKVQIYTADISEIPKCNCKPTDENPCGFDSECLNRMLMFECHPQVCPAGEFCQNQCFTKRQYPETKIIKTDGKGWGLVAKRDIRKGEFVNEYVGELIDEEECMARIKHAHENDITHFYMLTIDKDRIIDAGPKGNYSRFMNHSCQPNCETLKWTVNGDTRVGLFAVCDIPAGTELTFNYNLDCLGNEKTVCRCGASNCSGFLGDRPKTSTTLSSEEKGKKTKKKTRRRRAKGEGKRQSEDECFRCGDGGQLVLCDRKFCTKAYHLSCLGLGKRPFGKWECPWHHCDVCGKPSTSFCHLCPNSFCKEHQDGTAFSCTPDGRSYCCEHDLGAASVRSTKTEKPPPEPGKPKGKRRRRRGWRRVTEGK

[3] = target: T3, Caspase-3 (Homo sapiens, UniProt P42574); type: functional;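 also: Dose-response selectivity test against caspase-3 for candidate inhibitors of sentrin-specific proteases (SENPs)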
T3 sequence (P42574 whole entry): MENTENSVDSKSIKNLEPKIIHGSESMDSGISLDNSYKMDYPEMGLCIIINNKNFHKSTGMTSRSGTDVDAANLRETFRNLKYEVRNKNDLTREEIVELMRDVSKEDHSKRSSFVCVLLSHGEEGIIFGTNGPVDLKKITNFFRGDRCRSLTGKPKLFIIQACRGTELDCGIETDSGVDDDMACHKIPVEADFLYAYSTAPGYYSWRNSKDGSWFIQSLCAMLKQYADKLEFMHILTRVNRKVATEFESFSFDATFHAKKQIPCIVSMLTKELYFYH

[4] = target: T4, Sentrin-specific protease 8 (Homo sapiens, UniProt Q96LD8); type: functional;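 also: luminescence read-out of SENP8 inhibition, dose-response confirmation following an ultra-high-throughput screen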
T4 sequence (Q96LD8 whole entry): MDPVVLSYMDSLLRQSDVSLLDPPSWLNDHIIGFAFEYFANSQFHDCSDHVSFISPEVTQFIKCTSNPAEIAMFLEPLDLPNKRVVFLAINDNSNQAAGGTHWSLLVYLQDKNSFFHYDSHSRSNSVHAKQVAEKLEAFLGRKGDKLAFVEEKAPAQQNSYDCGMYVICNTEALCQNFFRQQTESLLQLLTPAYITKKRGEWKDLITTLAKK

SMILES	AC50 [1]	AC50 [2]	IC50 [3]	IC50 [4]
CCOC(=O)C(C(=O)OCC)c1cc(Br)c2noc3c2c1C(=O)c1ccccc1-3	27.6 µM (active)	> 20 µM (inactive)	–	–
CS(=O)(=O)c1ccc2c(c1)SC1=NC(=O)/C(=C/c3ccc(O)c(O)c3)C(=N)N12	–	1.9 µM (active)	–	–
C=CCNC1=C(Cl)C(=O)c2ccccc2C1=O	4.75 µM (active)	19.4 µM (active)	3.62 µM (active)	10.1 µM (active)
CN(C)c1ccc(-c2nnc(-c3cccs3)o2)cc1	–	–	22.3 µM (active)	> 100 µM (inactive)
